Results as given in US6559159B2, “Kappa opioid receptor ligands” (Research Triangle Institute, priority 2001, dated 2003).

What was measured:
delta opioid receptor [1] = biological target: T1, delta opioid receptor (Cavia porcellus, UniProt A0A286XTF2); experiment: Inhibition of SNC-80-stimulated [35S]GTPγS binding in guinea pig caudate; type: biochemical; conditions: 50% attenuation of SNC80 (10 μM)-stimulated [35S]GTP-γ-S binding, ± SD, read-out: Apparent Functional Ki SNC-80
T1 construct: as measured in guinea pig caudate membranes; from tissue; host or cells: guinea pig caudate membranes

mu opioid receptor [2] = biological target: T2, mu opioid receptor (Homo sapiens, UniProt P35372); experiment: Radioligand competitive binding, [3H]DAMGO; conditions: for Ki: radioligand binding, mu, ± SD
kappa opioid receptor [3] = biological target: T3, kappa opioid receptor (Cavia porcellus, UniProt P41144); experiment: Inhibition of U69,593-stimulated [35S]GTPγS binding in guinea pig caudate; type: biochemical; conditions: for Ki: 50% attenuation of U69,593 (10 μM)-stimulated [35S]GTP-γ-S binding, ± SD, read-out: Apparent Functional Ki U69,593; for δ/κ / μ/κ: ratio of apparent functional Ki
T3 construct: as measured in guinea pig caudate membranes; from tissue; host or cells: guinea pig caudate membranes

mu opioid receptor [4] = biological target: mu opioid receptor (Cavia porcellus, UniProt A0ACM8Q262); experiment: Inhibition of DAMGO-stimulated [35S]GTPγS binding in guinea pig caudate; type: biochemical; conditions: 50% attenuation of DAMGO (10 μM)-stimulated [35S]GTP-γ-S binding, ± SD, read-out: Apparent Functional Ki DAMGO
kappa opioid receptor [5] = biological target: T4, kappa opioid receptor (Homo sapiens, UniProt P41145); experiment: Radioligand competitive binding, [3H]U69,593; conditions: for Ki: radioligand binding, kappa, ± SD; for delta/kappa selectivity ratio (binding) / mu/kappa selectivity ratio (binding): column head not printed in Table 1
delta opioid receptor [6] = biological target: T5, delta opioid receptor (Homo sapiens, UniProt P41143); experiment: Radioligand competitive binding, [3H]DADLE; conditions: for Ki: delta, ± SD
mu opioid receptor [7] = biological target: T2, mu opioid receptor; experiment: Inhibition of DAMGO-stimulated [35S]GTPγS binding in cloned human opioid receptors; type: biochemical; design: expressed in transfected cells; conditions: 50% attenuation of DAMGO (10 μM)-stimulated [35S]GTP-γ-S binding, ± SD, read-out: Apparent Functional Ki DAMGO
kappa opioid receptor [8] = biological target: T4, kappa opioid receptor; experiment: Inhibition of U69,593-stimulated [35S]GTPγS binding in cloned human opioid receptors; type: biochemical; design: expressed in transfected cells
delta opioid receptor [9] = biological target: T5, delta opioid receptor; experiment: Inhibition of SNC-80-stimulated [35S]GTPγS binding in cloned human opioid receptors; type: biochemical; design: expressed in transfected cells; conditions: 50% attenuation of SNC80 (10 μM)-stimulated [35S]GTP-γ-S binding, ± SD, read-out: Apparent Functional Ki SNC-80
[10] = ratio of apparent functional Ki, cloned human receptors

Compound | Ki (delta opioid receptor [1]) | Ki (mu opioid receptor [2]) | Ki (kappa opioid receptor [3]) | δ/κ (kappa opioid receptor [3]) | μ/κ (kappa opioid receptor [3]) | Ki (mu opioid receptor [4]) | Ki (kappa opioid receptor [5]) | delta/kappa selectivity ratio (binding) (kappa opioid receptor [5]; ratio of binding Ki) | mu/kappa selectivity ratio (binding) (kappa opioid receptor [5]; ratio of binding Ki) | Ki (delta opioid receptor [6]) | Ki (mu opioid receptor [7]) | Ki (kappa opioid receptor [8]; cloned human opioid receptors, 50% attenuation of U69,593 (10 μM)-stimulated [35S]GTP-γ-S binding, ± SD, read-out: Apparent Functional Ki U69,593) | δ/κ (kappa opioid receptor [8]; [10]) | μ/κ (kappa opioid receptor [8]; [10]) | affinity for the mu receptor lower than compound 10 (mu opioid receptor [2]; binding Ki of 12 relative to 10) | Ki (delta opioid receptor [9]) | delta/kappa selectivity profile (binding, text) (kappa opioid receptor [5]; ratio of binding Ki) | affinity for the delta receptor (in words) (delta opioid receptor [6]; within the testing parameters)
Oc1ccc2c3c1O[C@H]1c4[nH]c5c(c4C[C@@]4(O)[C@@H](C2)N(CC2CC2)CC[C@]314)C[C@@]1(O)[C@H]2Cc3ccc(O)c4c3[C@@]1(CCN2CC1CC1)[C@H]5O4 [6, nor-BNI, norbinaltorphimine] | 86 ± 7.2 nM |  |  |  |  |  |  |  |  |  |  |  |  |  |  |  |  | 
CC1C2CCCC1(c1cccc(O)c1)CCN2CCc1ccccc1 (stereo not drawn) [Compound 10, N-phenethyl-9β-methyl-5-(3-hydroxyphenyl)morphan, reference compound] | 12.6 ± 1.01 nM | 3.11 nM | 1.34 ± 0.084 nM | 9.4 | 0.25 | 0.338 ± 0.028 nM | 14.5 ± 0.99 nM | 19 | 0.21 | 272 ± 30 nM |  |  |  |  |  |  |  | 
C[C@@H]1CN(CCCc2ccccc2)[C@H]2C[C@H](NC(=O)CCN3CCCCC3)C[C@]1(c1cccc(O)c1)C2 [Compound 12, (−)-N-[(1R,4S,5S, 7R)-5-(3-hydroxy)phenyl-4-methyl-2-(3-phenylpropyl)-2-azabicyclo[3.3.1]non-7-yl]-3-(1-piperidinyl)propanamide] | > 300 nM | 147 nM | 0.48 ± 0.06 nM | >625 | 70 | 33.6 ± 10.4 nM | 4.3 nM | >790 | 34 | > 3400 nM | 35.8 ± 6.8 nM | 0.56 ± 0.08 nM | >178 | 64 | ~50 fold | > 100 nM | > 790 fold | no affinity
C[C@@H]1CN(CCCc2ccccc2)[C@H]2C[C@H](NC(=O)CCCN(C)C)C[C@]1(c1cccc(O)c1)C2 [Compound 13, 4-(dimethylamino)-N-[(1R,4S,5S,7R)-5-(3-hydroxyphenyl)-4-methyl-2-(3-phenylpropyl)-2-azabicyclo[3.3.1]non-7-yl]butanamide] |  | 57 ± 5.4 nM |  |  |  |  | 11.9 ± 0.65 nM | 122 | 5 | 1460 ± 113 nM |  |  |  |  |  |  |  | 
